“And” between values parts separate entries of the source, which are not always exact repeats. Equal entries are not always repeated.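 These data come from cells grown in 96-well plates and exposed to compound for 48 hours at five concentrations. Here, GI50 denotes the concentration required for 50% inhibition of growth. TGI: total growth inhibition.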

Test systems include CAKI-1 renal; KM12 colon; NCI-H226 lung; OVCAR-3 ovarian; PC-3 prostate; 786-0 renal; K-562 leukemia; M14 melanoma; SR leukemia; BT-549 breast.
Assay in all cases: NCI-60 cell line screen, 48 h

As for `CCCCCCOc1ccc(C(=N)N(CCCC)CCCC)c2ccccc12`, the GI50 with CAKI-1 renal was 1.39 µM; in the assay on KM12 colon, 1.61 µM; with NCI-H226 lung it was 1.53 µM; with OVCAR-3 ovarian, 1.49 µM; in the assay with PC-3 prostate it was 1.53 µM. Besides, the TGI came to 2.86 µM with CAKI-1 renal; 3.09 µM in the assay with KM12 colon; 3.07 µM in the assay with NCI-H226 lung; 2.98 µM in the assay with OVCAR-3 ovarian; 3.05 µM with PC-3 prostate.

Regarding `CC(C)(C)CC(C)(C)c1ccc(OCCOCC[N+](C)(C)Cc2ccccc2)cc1`, the TGI with 786-0 renal was 24.4 µM; with CAKI-1 renal, 38.2 µM and 30.8 µM; in the assay on K-562 leukemia, 15.7 µM; with M14 melanoma, 6.11 µM; with NCI-H226 lung, 15.7 µM; with OVCAR-3 ovarian, 6.8 µM. Further, the GI50 was 15.1 µM in the assay on CAKI-1 renal and 1.75 µM in the assay on SR leukemia.

For the compound `C=CCOC(=O)CCCCCCCCCCCCCCCOC(=O)C1=C(CCC[C@@H](C)O[Si](C)(C)C(C)(C)C)NC(=O)N2[C@H](CC3(CC/C=C\[C@H](CC)O[Si](C(C)C)(C(C)C)C(C)C)OCCO3)CC[C@H]12`, the TGI with 786-0 renal, in the assay on BT-549 breast, in the assay with CAKI-1 renal, with KM12 colon, in the assay on M14 melanoma and in the assay on NCI-H226 lung was > 100 µM in each case. Moreover, the TGI with OVCAR-3 ovarian and in the assay on PC-3 prostate was > 100 µM in each case.

On to `CC(=O)O[C@H]1C(=O)N(c2cc3c4ccccc4ccc3c3ccccc23)[C@@H]1c1ccccc1`, for which the TGI in the assay on 786-0 renal is 15.9 µM; in the assay with CAKI-1 renal, 35.5 µM; with K-562 leukemia, > 100 µM; in the assay with KM12 colon, 27.1 µM; in the assay on M14 melanoma, 23.1 µM; in the assay on NCI-H226 lung, 40.3 µM. For the same compound, the TGI worked out at 4.86 µM in the assay on OVCAR-3 ovarian, 65.3 µM in the assay on PC-3 prostate and 40.3 µM in the assay with SR leukemia.

Consider `COC(=O)n1c(C[P+](c2ccccc2)(c2ccccc2)c2ccccc2)cc2ccccc21`, for which the TGI was found to be 12.8 µM in the assay on 786-0 renal; 7.15 µM in the assay with CAKI-1 renal; 16.2 µM in the assay with K-562 leukemia; 3.94 µM in the assay on KM12 colon; 7.37 µM in the assay with M14 melanoma; 5.95 µM in the assay with NCI-H226 lung. The TGI in the assay with OVCAR-3 ovarian was 11.2 µM; in the assay with SR leukemia, 25 µM.

Turning to `O=CNNC(=O)Nc1ccc(Cl)cc1`, the TGI with 786-0 renal, in the assay with K-562 leukemia, in the assay on KM12 colon, in the assay on M14 melanoma, with NCI-H226 lung and with SR leukemia was > 100 µM throughout.

With `CC(=O)Nc1ccc(C(=O)N2N=C(C)/C(=C/c3ccc(O)cc3)C2=O)cc1`, the TGI in the assay on 786-0 renal, in the assay on CAKI-1 renal, in the assay on K-562 leukemia, with KM12 colon, in the assay on NCI-H226 lung and in the assay with OVCAR-3 ovarian was > 100 µM throughout. For the same compound, the TGI in the assay on SR leukemia was > 100 µM.

On to `Nc1c(N=Nc2ccc(-c3ccc(N=Nc4c(O)ccc5cc(S(=O)(=O)O)cc(S(=O)(=O)O)c45)cc3)cc2)c(S(=O)(=O)O)cc2cc(S(=O)(=O)O)c(N=Nc3ccccc3)c(O)c12`, for which the TGI was > 100 µM with K-562 leukemia, > 100 µM with KM12 colon, > 95 µM in the assay with NCI-H226 lung and > 100 µM in the assay with OVCAR-3 ovarian.

For `CCOC1=C2NC(Cc3ccc(F)cc3)=NC2C(=O)c2ccccc21` (stereo unspecified), the TGI in the assay with 786-0 renal is 47.8 µM; with K-562 leukemia, > 100 µM; in the assay on KM12 colon, > 100 µM; in the assay with M14 melanoma, 73.4 µM; in the assay with OVCAR-3 ovarian, > 100 µM.

With `c1ccc(OCCSCCCCCCCCCCSCCOc2ccccc2)cc1`, the TGI in the assay with 786-0 renal, in the assay on K-562 leukemia, in the assay on KM12 colon, in the assay on M14 melanoma, in the assay with NCI-H226 lung and in the assay with OVCAR-3 ovarian was > 100 µM each time.

On to `C/C(=C\Cc1cc(O)ccc1O)CCc1c(C)cc(O)c(C=O)c1C`, for which the TGI in the assay with 786-0 renal is 62.6 µM; in the assay on CAKI-1 renal it was 63.5 µM; with K-562 leukemia, > 100 µM; with KM12 colon, > 100 µM; in the assay on M14 melanoma it was 63.1 µM; with NCI-H226 lung, 78.5 µM. In addition, the TGI was 53.1 µM in the assay on OVCAR-3 ovarian and > 100 µM in the assay with SR leukemia.

On to `CCOC(=O)CCCn1cc(C(=O)OC)nn1`, for which the TGI in the assay with 786-0 renal, with BT-549 breast, in the assay on CAKI-1 renal, with KM12 colon, in the assay on NCI-H226 lung and in the assay with PC-3 prostate was > 100 µM each time.

As to `O=S1(=O)OCCOS(=O)(=O)C1Cc1nc2ccccc2[nH]1`, the TGI in the assay on 786-0 renal was > 100 µM; with CAKI-1 renal, 95.4 µM; in the assay with K-562 leukemia, > 100 µM; with KM12 colon, > 100 µM; in the assay with M14 melanoma, > 100 µM; in the assay on OVCAR-3 ovarian, > 100 µM. Moreover, the values for the TGI in the assay with PC-3 prostate and in the assay on SR leukemia were 73.4 µM and > 100 µM, respectively.

As to `[N-]=[N+]=C(C(=O)C(=[N+]=[N-])C(=O)c1ccccc1)C(=O)c1ccccc1`, the TGI in the assay with 786-0 renal, in the assay on BT-549 breast, with K-562 leukemia, with KM12 colon, in the assay with M14 melanoma and with OVCAR-3 ovarian was > 100 µM each time. The TGI with PC-3 prostate is > 100 µM.

For the compound `CC1=C2C(=O)c3ccccc3C(=O)[C@H]2C[C@@H](N2CCCCCC2=O)O1`, the TGI is 32.7 µM in the assay on 786-0 renal; 35.5 µM in the assay on CAKI-1 renal; 53.4 µM in the assay on K-562 leukemia; 30.7 µM in the assay with KM12 colon; 28.8 µM in the assay with M14 melanoma; > 100 µM in the assay with NCI-H226 lung. Moreover, the TGI was 38.2 µM in the assay on OVCAR-3 ovarian, 44.4 µM in the assay with PC-3 prostate and 25.7 µM in the assay with SR leukemia.

As to `COC(=O)C(C(=O)C(=O)NC1Nc2ccc(C)cc2S1)c1nc2ccc(Cl)cc2[nH]c1=O` (stereo unspecified), the TGI with 786-0 renal, in the assay with BT-549 breast, with CAKI-1 renal, in the assay on K-562 leukemia, in the assay on KM12 colon and in the assay on NCI-H226 lung was > 100 µM in each case. The TGI with OVCAR-3 ovarian and with PC-3 prostate was > 100 µM throughout.

With `O=C1/C(=C\c2cccc(Oc3ccccc3)c2)SC(c2ccccc2)N1c1cccc([N+](=O)[O-])c1` (stereo unspecified), the TGI in the assay with 786-0 renal, in the assay on BT-549 breast, in the assay with CAKI-1 renal, in the assay with K-562 leukemia, in the assay on KM12 colon and in the assay with M14 melanoma was > 100 µM each time. Besides, the TGI in the assay on NCI-H226 lung, with OVCAR-3 ovarian and in the assay with SR leukemia was > 100 µM throughout.

Source of the values: PubChem BioAssay (NCI).
